This is an account of results in patent US9849198B2, “Discrete imaging of hepatic oxidative and nitrosative stress with two-channel nanoparticles for in vivo drug safety screening” (The Board of Trustees of the Leland Stanford Junior …, priority 2013, dated 2017).

In data set [1] the test system is APAP-induced hepatic ROS and RNS production. Put plainly: In vivo monitoring of remediation of APAP-induced hepatotoxicity with enzyme inhibitors and antioxidant scavengers. On the set-up: species or system mice. The conditions noted are these: for FL index / ONOO/HOCl production in liver / luminescence emission / H2O2 production in liver: APAP 300 mg/kg i.p. with GSH 200 mg/kg i.v., 1-ABT 2×100 mg/kg i.p. or t-1,2-DCE 0.2 mg/kg i.p. On the procedure: To this end, the effects of inhibitors of APAP bioactivation on in vivo hepatic ROS and RNS production were evaluated using the CF-SPNs of the disclosure (FIGS. 4A, 4C, and 4D).
Without wishing to be bound by any one theory, a mechanism for APAP bioactivation involves CYP450-mediated oxidation to an iminoquinone, N-acetylparaquinonimine (NAPQI), which can bind directly to cellular proteins to induce mitochondrial dysfunction and the production of ONOO, or undergo reduction by molecular oxygen to form superoxide (O2.^−) and H2O2 (FIG. 4B).
For inhibitor studies, animals were treated with 200 mg/kg of GSH intravenously 5 min prior to drug treatment (James et al., (2003) Toxicol. Sci. 75: 458-467), with 0.2 mg/kg t-1,2-DCE intraperitoneally 2 h prior to drug treatment (Jackson et al., (2000) Toxicol. Sci. 55: 266-273), or with 100 mg/kg 1-ABT intraperitoneally 12 and 24 h prior to drug treatment (as described in Jackson et al., (2000) Toxicol. Sci. 55: 266-273).

In data set [2] the test system is drug-induced hepatic oxidative and nitrosative stress. Briefly: Real-time in vivo CF-SPN imaging of drug-induced hepatotoxicity (chemiluminescence and fluorescence index). Also on record: species or system female nude mice.
Experimental: Female nude mice were administered a given dose of APAP intraperitoneally, anesthetized, and fitted with tail vein catheters.
All animal experiments involved 8-10 week old female nude mice (Charles River Laboratories International, Inc., Mass., USA). Animals were fasted for 8 h prior to imaging for all drug-induced hepatotoxicity imaging. Animals were treated intraperitoneally with sterilized saline solutions of APAP (10 mg/mL) or INH (10 mg/mL) and were then anesthetized with intraperitoneal injection of 100 mg/kg ketamine and 10 mg/mL xylazine. A tail vein catheter was inserted, and the mice were placed in an IVIS® Spectrum imaging system. Fifteen minutes after the administration of drug, 0.8 mg CF-SPN was injected intravenously through the tail vein catheter, and imaging began immediately. Luminescence images were acquired for 3 min with an open filter, and fluorescence images were acquired using autoexposure with excitation of 580±10 nm, and emission at both 680±10 nm and 820±10 nm.
Luminescence data was processed using Living Image software (v. 4.3.1, Perkin Elmer, Mass., USA) for all experiments, in addition to fluorescence data for biodistribution experiments. For fluorescent ratiometric mapping of liver intensity, image scale bars were normalized, with the scale set to a red color scheme.
Fluorescence images without photograph overlay were exported as TIFF, read into Matlab® (v. 8.0.0.783, The MathWorks Inc., CO, USA) where the percent difference between the fluorescence intensity at 680 nm and 820 nm was mapped for the liver region of interest. To plot the fluorescence index (FL index) over time, fluorescence intensities of the liver region of interest were extracted for images acquired with emission at 680 nm and at 820 nm using Living Image software. The intensity values, measured in units of radiance efficiency, were exported to Excel® where the percent difference in emission intensity at 680 nm and 820 nm was calculated. Finally, the FL index was calculated as the ratio of the percent difference of drug treated animals to that of control animals. All statistical analyses were performed using Prism software (v. 5.0c, GraphPad Software Inc., CA, USA).
The next data set concerns liver tissue. Put plainly: Histology (H&E), nitrotyrosine immunohistochemistry and TUNEL staining of liver after drug challenge. The class given is in vivo, mice. On the procedure:
The correlation of an imaging biomarker with histological changes in the tissue of interest is desirable to validate the use of a biomarker for indicating an intended pathological outcome. To this end, histological and immunohistochemical analysis of liver tissue was performed on mice 45 min (FIGS. 3D and 11) and 180 min (FIGS. 3E and 11) following treatment with the indicated doses of APAP.
Animals were imaged longitudinally for the indicated lengths of time, warmed until observable sternal recumbence, and then returned to their cage. Animals were euthanized 180 min following drug treatment, and their livers were resected and placed into buffered formalin for histological examination. A separate set of animals was fasted, treated with drug, and their livers were resected after euthanasia to provide tissues for histological examination 45 min following drug treatment.
All tissues were embedded in paraffin prior to 10 micron sectioning. Histology samples were stained by hematoxylin and eosin under standard protocols. Immunohistochemistry samples were processed using an anti-nitrotyrosine primary antibody (Life Technologies Inc., NY, USA) at 1:500 dilution, with color development according to the protocol described in the DAKO LSB+ kit. Endogenous peroxidases were quenched prior to processing. TUNEL staining was performed according to the manufacturer instructions using the ApopTag Plus Peroxidase In Situ Apoptosis Kit (EMD Millipore, Mass., USA). All images were acquired using an Olympus IX2-UCB (Olympus America Inc., PA, USA) inverted fluorescence microscope equipped with a Nuance (CRi Inc., MA, USA) hyperspectral camera capable of brightfield full color imaging.

The test system of a further data set is liver H2O2. Put plainly: Extension of H2O2 detection window by readministration of CF-SPN after APAP. The conditions noted are these: APAP 300 mg/kg i.p. The class given is in vivo, mice. On the procedure: FIG. 10A illustrates extension luminescent images of the time course of H2O2 detection after drug challenge by readministration of CF-SPN. Mice were administered 300 mg/kg APAP (top row, 1-4) or saline (bottom row, 5-8) i.p., followed by the administration of 0.8 mg CF-SPN i.v. After 25 min, CF-NP was readministered i.v.
FIG. 10B is a graph illustrating the quantitation of liver luminescence. Black arrow in indicates CF-SPN readministration. Numbers on images correspond to time points indicated on plot.
This elevation in luminescence from APAP overdose was sustained over the time course of imaging (FIG. 3B). However, due to the baseline consumption of CPPO that had been observed in mouse serum (FIG. 7B), the ability to extend the H2O2 detection window with the re-administration of CF-SPN was assessed (FIG. 10). The re-administration of CF-SPN following treatment with a hepatotoxic dose of APAP (300 mg/kg) produced an elevated luminescence signal having approximately 50% of the intensity of the initial CF-SPN injection.

The conditions of data set [3]: anti-tuberculosis chemotherapy; cited from earlier work.
The subject of data set [4] is drug-induced liver production of H2O2. Particulars: APAP 300 mg/kg i.p.; 0.2 mg luminol i.v., dose equal to CPPO in 0.8 mg CF-SPN.
The mark [5] stands for this setting: 200, 100, 50 mg/kg i.p., 0.8 mg CF-SPN i.v.

A value given as a limit tells only on which side of the number the result lay.

Turning to `Nn1nnc2ccccc21` [1-ABT, 1-aminobenzotriazole], the “duration of H2O2 production after CF-SPN administration” value in data set [1] (APAP 300 mg/kg i.p. with 1-ABT 2×100 mg/kg i.p.) is “less than 20 min”. Moreover, in data set [1], the “FL index / ONOO/HOCl production in liver” value is on record as “suppressed ONOO/HOCl production to the same extent” and the “luminescence emission / H2O2 production in liver” value is “intense but short-lived”.

With `CC(=O)Nc1ccc(O)cc1` [APAP, acetaminophen], the “liver chemiluminescence (H2O2)” value in data set [2] (150 mg/kg and 75 mg/kg i.p., 0.8 mg CF-SPN i.v.) is reported as “only baseline luminescence similar to untreated mice”; in data set [2] (300 mg/kg i.p., by 18 min after start of imaging, 0.8 mg CF-SPN i.v.) it was “significant enhancement in signal”. In data set [2] (53 min after CF-SPN administration, doses 300, 150, 75 mg/kg i.p.), the “elevation in percent difference between fluorescence emission at 680 nm and 820 nm (ONOO/HOCl)” value is “only observed for mice receiving 300 mg/kg APAP”. For the same compound, in data set [2] (APAP overdose 300 mg/kg i.p.), the “timing of increase in ONOO/HOCl generation (FL index)” value is listed as “later than the generation of H2O2”. Moreover, the “foci positive for protein nitrotyrosyl residues or TUNEL (DNA fragmentation)” value in the data set on liver tissue (45 min after drug administration) was “no foci positive”. Also, in the data set with liver tissue (45 min after drug challenge, any dose level (300, 150, 75 mg/kg)), the “histological changes in liver tissue (hematoxylin/eosin)” value is reported as “No histological changes”. Also, the “immunohistochemical and histological findings in liver” value in the data set on liver tissue (180 min after administration, 300 mg/kg) was “significant protein nitrotyrosyl and TUNEL-positive foci, as well as hepatocellular degeneration characteristic of APAP-induced oncotic necrosis”. Further, the “immunohistochemical or histological changes to liver tissue” value with liver tissue (lower doses (150 mg/kg, 75 mg/kg)) is “did not induce immunohistochemical or histological changes to liver tissue”. For the same compound, the “time after administration within which a significant decrease in H2O2 production occurs” value with liver H2O2 is on record as at most 60 min.

In the case of `N[C@@H](CCC(=O)N[C@@H](CS)C(=O)NCC(=O)O)C(=O)O` [GSH, glutathione], in data set [1], the “FL index / ONOO/HOCl production in liver” value was “reduced level of H2O2 and ONOO/HOCl production relative to mice receiving APAP alone, but still elevated”; the “luminescence emission / H2O2 production in liver” value was “reduced level of H2O2 and ONOO/HOCl production relative to mice receiving APAP alone, but still elevated”.

`NNC(=O)c1ccncc1` [INH, isoniazid]: in data set [2] (setting [5]), the “dose dependence of H2O2 production (chemiluminescence)” value is reported as “threshold dose-type production” and the “dose dependence of ONOO/HOCl production (fluorescence index)” value was “dose-dependent enhancement”. For the same compound, the “kinetics of oxidative stress compared with APAP” value in data set [2] (i.p., chemiluminescent channel) is recorded as “more short-lived oxidative burst”. Moreover, the “kinetics of nitrosative stress compared with APAP” value in data set [2] (i.p., fluorescent channel) was “more rapidly developed and sustained induction of nitrosative stress”. In addition, the “severity of liver tissue degradation (histology, H&E)” value in the data set with liver tissue (180 min after drug administration, 200, 100, 50 mg/kg i.p.) was “dose-dependent increase in the severity of liver tissue degradation”. Further, the “patients with associated hepatotoxicity” value in data set [3] was at most 25%.

With `Nc1cccc2c(=O)[nH][nH]c(=O)c12` [Luminol, luminol], the “luminescent signal from liver after APAP overdose” value in data set [4] is “did not produce any detectable luminescent signal”.

In the case of `Cl/C=C/Cl` [t-1,2-DCE, trans-1,2-dichloroethylene], in data set [1], the “FL index / ONOO/HOCl production in liver” value is “suppressed ONOO/HOCl production to the same extent” and the “luminescence emission / H2O2 production in liver” value is recorded as “completely prevent H2O2 production”.
